Common to all, as to test: inhibition of tumour cell growth, NCI panel, 48 h
The subject of experiment [1] is SNB-75 CNS.
Experiment [2] has as its system SW-620 colon.
The test system of experiment [3] is CAKI-1 renal.
Experiment [4] has as its system T-47D breast.
Experiment [5] relates to NCI-H23 lung.
For experiment [6], the system named is DU-145 prostate.
Experiment [7] has as its system HCT-15 colon.
In experiment [8] the test system is SK-MEL-2 melanoma.
Experiment [9] has as its system HCT-116 colon.
For experiment [10], the system named is TK-10 renal.

Structures are written as SMILES.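 Briefly, cells in 96-well plates were exposed to five compound concentrations for 48 h, and endpoints were estimated by linear interpolation. TGI is the concentration that stops growth completely.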 Where only a bound is given, the exact number is not on record here.

Results on 13 molecules are retold here after PubChem BioAssay (NCI).

Turning to `c1ccc(C(CCN2CCCC2)c2ccccn2)cc1` (stereo not given), the TGI in experiment [1], in experiment [2], in experiment [3], in experiment [4], in experiment [5] and in experiment [6] was above 100 µM each time. The TGI in experiment [7], in experiment [8], in [9] and in experiment [10] was above 100 µM in each case.

Consider `Sc1nnc(-c2ccccc2Nc2ccccc2-c2nnc(S)n2-c2ccccc2)n1-c1ccccc1`, for which the TGI in experiment [1] was 90.8 µM; in experiment [2] it was 81.9 µM; in experiment [3], above 100 µM; in experiment [4], 88.2 µM; in experiment [5], above 100 µM; in experiment [6], above 100 µM. Further, the TGI in experiment [7] is above 100 µM; in [8] it was 84.2 µM; in experiment [9], above 100 µM; in experiment [10], above 100 µM.

`Cc1cc(S(=O)(=O)O)ccc1N=Nc1ccc(N=Nc2c(O)ccc3ccccc23)c(C)c1`: the TGI in experiment [1], in [2], in experiment [3], in [4], in [5] and in experiment [6] was above 100 µM throughout. Also, the TGI in experiment [7], in experiment [8], in experiment [9] and in [10] was above 100 µM in each case.

In the case of `CCN(CC)C(=S)SNCCc1ccc(S(N)(=O)=O)cc1`, the TGI was 27 µM in [1]; 36.7 µM in experiment [2]; 29 µM in [3]; 45.1 µM in [4]; 38.7 µM in experiment [5]; 33.8 µM in experiment [6]. Further, the TGI in experiment [7] is 38.5 µM; in experiment [8] it was above 86.7 µM; in experiment [9], 26.4 µM; in experiment [10], 42.5 µM.

As to `O=C1C=CC2(O[C@@H](Cc3ccccc3)[C@H](Cc3ccccc3)O2)C(SC(=O)c2ccccc2)C1` (stereo not given in full), the TGI in experiment [1] was found to be 3.41 µM; in experiment [2] it was 0.858 µM; in [3], 3.71 µM; in experiment [4], 11.3 µM; in experiment [5], 4.67 µM; in [6] it was 11.8 µM. In addition, the TGI in experiment [7] came to 1.71 µM; in [8], 3.46 µM; in [9], 0.375 µM; in experiment [10] it was 4.09 µM.

In the case of `C=CCC1NCCC2=C1C(S(=O)(=O)c1ccc(C)cc1)c1ccccc12` (stereo not given), the TGI worked out at 18.9 µM in [1]; 29.4 µM in experiment [2]; 19.6 µM in [3]; 26.1 µM in experiment [4]; 36.4 µM in experiment [5]; 24.3 µM in experiment [6]. Also, the TGI in experiment [7] amounted to 27.8 µM; in experiment [8], 27.1 µM; in [9], 23.6 µM; in experiment [10] it was 32.7 µM.

With `O=C1c2ccccc2C(=O)N1C(=S)c1ccccc1`, the TGI in [1], in experiment [2], in [3], in experiment [4], in experiment [5] and in experiment [6] was above 100 µM each time. Further, the TGI in [7], in experiment [8], in experiment [9] and in [10] was above 100 µM throughout.

For the molecule `C[C@H](CC[C@@H](O)C(C)(C)O)[C@H]1CC[C@@]2(C)[C@@H]3CC=C4[C@@H](CC[C@H](OC5OC(CO)C(O)C(O)C5O)C4(C)C)[C@]3(C)C(=O)C[C@]12C` (stereo not given in full), the TGI in experiment [1], in experiment [2], in experiment [3], in [4], in experiment [5] and in [6] was above 100 µM each time. Also, the TGI is above 100 µM in experiment [7], 69.6 µM in experiment [8], above 100 µM in experiment [9] and above 100 µM in experiment [10].

As for `CC1=CC(=O)c2cccc(NC3=NCCO3)c21`, the TGI in [1], in experiment [2], in experiment [3], in experiment [4], in experiment [5] and in experiment [6] was above 100 µM each time. Further, the TGI in [7], in [8], in [9] and in [10] was above 100 µM each time.

For `COc1ccc(N2C(=O)C3c4[nH]c5ccccc5c4C4CCC(C(C)C)CC4C3C2=O)cc1` (stereo not given), the TGI in experiment [1], in experiment [2], in experiment [3], in experiment [4], in experiment [5] and in experiment [6] was above 100 µM each time. Also, the TGI in experiment [7], in [8], in experiment [9] and in experiment [10] was above 100 µM throughout.

With `Clc1ccc(OCC2NC3C=CC32)cn1` (stereo not given), the TGI in experiment [1], in experiment [2], in experiment [3], in experiment [4], in experiment [5] and in [6] was above 100 µM throughout. Also, the TGI in experiment [7], in experiment [8], in experiment [9] and in experiment [10] was above 100 µM in each case.

On to `FC1CCN(C2(c3cccs3)CCCCC2)CC1`, for which the TGI in [1], in experiment [2], in experiment [3], in [4], in [5] and in [6] was above 100 µM in each case. The TGI in experiment [7], in experiment [8], in experiment [9] and in [10] was above 100 µM in each case.

Regarding `COCC(=O)[C@]1(O)Cc2c(O)c3c(c(O)c2[C@@H](OC2CC(N)C(O)C(C)O2)C1)C(=O)c1c(OC)cccc1C3=O` (stereo not given in full), the TGI was determined as 0.161 µM in experiment [1]; 3.01 µM in experiment [2]; 0.422 µM in experiment [3]; 0.737 µM in experiment [4]; 0.256 µM in [5]; 0.974 µM in experiment [6]. Further, the TGI is 0.498 µM in experiment [7], 0.259 µM in experiment [8], 1.08 µM in experiment [9] and 13.8 µM in experiment [10].
